Experimental data: patent publication US8492391B2, “Substituted 6-(2-hydroxybenzylamino)purine derivatives, their use as medicaments and compositions containing these derivatives” (Univerzita Palackeho V Olomouci, priority 2009, dated 2013)
Like-named read-outs stand apart in the source and are kept apart here.

Legend:
CDK2/cyclin E = target: T1, CDK2/cyclin E (Homo sapiens, UniProt P24941); assay: CDK2/cyclin E kinase inhibition assay; assay type: biochemical; conditions: kinase inhibitory activity, 15 μM ATP, histone substrate
T1 construct: made in house; host or cells: Sf9 insect cells, baculovirus co-infection
Description: (§1) Selected compounds were tested for CDK1/cyclin B, CDK2/cyclin E, CDK5/p25, CDK7/cyclin H and CDK9/cyclin T inhibitory activity to determine the basic relationships between their structure and the inhibitory activity. Cdk/cyclin complexes were expressed in Sf9 cells co-infected with appropriate baculoviral construct. The cells were harvested 70 hours post infection in lysis buffer (50 mM Tris pH 7.4, 150 mM NaCl, 5 mM EDTA, 20 mM NaF, 1% Tween 20, protease inhibitors) for 30 min on ice and the soluble fraction was recovered by centrifugation at 14.000 g for […]. The protein extract was stored at −80° C. until use. The final point test system for kinase activity measurement was used to carry out experiments on the kinetics under linear conditions. […] ATP and tested compound in a final volume of 20 μl, all in reaction buffer: 50 mM Hepes pH 7.4, 10 mM MgCl2, 5 mM EGTA, 10 mM 2-glycerolphosphate, 1 mM NaF, 1 mM DTT and protease inhibitors. After 30 min, the incubations were stopped by adding 5% H3PO4 and then the proteins were separated by phosphocellulose binding. The measurement of kinase inhibition employed the digital imaging analyzer BAS 1800. The kinase activity was expressed as a percentage of maximum activity and the IC50 value was determined by graphic analysis. The kinase activity is expressed as a percentage of maximum activity (FIG. 1).

[1] = system: HOS (human osteogenic sarcoma); assay: Calcein AM cytotoxicity assay, HOS; assay type: cell-based; conditions: read-out: Cytotoxic activity IC50 (μM) HOS
Description: (§2) Cytotoxicity of the compounds is the major property determining their anticancer effect in vivo. One of the parameters used, as the basis for cytotoxicity assays, is the metabolic activity of viable cells. For example, a microtiter assay, which uses the Calcein AM, is now widely used to quantitate cell proliferation and cytotoxicity. For instance, this assay is used in drug screening programs and in chemosensitivity testing. Because only metabolically active cells cleave Calcein AM, these assays detect viable cells exclusively. The quantity of cleaved Calcein AM corresponds to the number of vital cells in the culture. We have been using the following cell lines: MCF7 (human breast adenocarcinoma), K562 (human chronic myelogenous leukaemia), HOS (human osteogenic sarcoma), HeLa (human cervical carcinoma), HL 60 (human promyelocytic leukaemia), G 361 (human malignant melanoma), CEM (human lymphoblastoid leukaemia). All cell lines were grown in DMEM medium (Gibco BRL) supplemented with 10% (v/v) fetal bovine serum and L-glutamine and maintained at 37° C. in a humidified atmosphere with 5% CO2. For cytotoxicity assays, 10^4 cells were seeded into each well of 96 well plate, allowed to stabilize for at least 2 h and then tested compounds were added at various concentrations ranging from 100 to 0.1 μM in triplicates. Three days after drug addition Calcein AM solution (Molecular Probes) was added and let to enter the cells for 1 hour. Fluorescence of viable cells was quantified using Fluoroskan Ascent (Microsystems).

[2] = system: MCF7 (human breast adenocarcinoma); assay: Calcein AM cytotoxicity assay, MCF7; assay type: cell-based; conditions: MCF7, read-out: Cytotoxic activity IC50 (μM) MCF7
Description: as §2

[3] = system: K562 (human chronic myelogenous leukaemia); assay: Calcein AM cytotoxicity assay, K562; assay type: cell-based; conditions: read-out: Cytotoxic activity IC50 (μM) K562
Description: as §2

CDK9/cyclin T = target: T2, CDK9/cyclin T (Homo sapiens, UniProt P50750); assay: CDK9/cyclin T kinase inhibition assay; assay type: biochemical; conditions: kinase inhibitory activity, 15 μM ATP, (YSPTSPS)3 peptide substrate
T2 construct: made in house; host or cells: Sf9 insect cells, baculovirus co-infection
T2 sequence (P50750 whole entry, species assumed): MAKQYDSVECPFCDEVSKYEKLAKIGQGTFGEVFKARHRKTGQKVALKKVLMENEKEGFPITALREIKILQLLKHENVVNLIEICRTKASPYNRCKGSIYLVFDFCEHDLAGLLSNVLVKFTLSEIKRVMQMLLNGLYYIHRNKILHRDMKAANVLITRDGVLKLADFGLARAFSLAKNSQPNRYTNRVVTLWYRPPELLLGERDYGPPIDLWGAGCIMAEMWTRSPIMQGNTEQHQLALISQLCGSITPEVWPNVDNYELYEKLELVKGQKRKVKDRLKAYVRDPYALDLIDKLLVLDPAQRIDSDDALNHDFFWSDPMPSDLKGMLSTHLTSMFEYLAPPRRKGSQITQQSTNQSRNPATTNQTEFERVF
T2 sequence (O60563 whole entry partner, species assumed): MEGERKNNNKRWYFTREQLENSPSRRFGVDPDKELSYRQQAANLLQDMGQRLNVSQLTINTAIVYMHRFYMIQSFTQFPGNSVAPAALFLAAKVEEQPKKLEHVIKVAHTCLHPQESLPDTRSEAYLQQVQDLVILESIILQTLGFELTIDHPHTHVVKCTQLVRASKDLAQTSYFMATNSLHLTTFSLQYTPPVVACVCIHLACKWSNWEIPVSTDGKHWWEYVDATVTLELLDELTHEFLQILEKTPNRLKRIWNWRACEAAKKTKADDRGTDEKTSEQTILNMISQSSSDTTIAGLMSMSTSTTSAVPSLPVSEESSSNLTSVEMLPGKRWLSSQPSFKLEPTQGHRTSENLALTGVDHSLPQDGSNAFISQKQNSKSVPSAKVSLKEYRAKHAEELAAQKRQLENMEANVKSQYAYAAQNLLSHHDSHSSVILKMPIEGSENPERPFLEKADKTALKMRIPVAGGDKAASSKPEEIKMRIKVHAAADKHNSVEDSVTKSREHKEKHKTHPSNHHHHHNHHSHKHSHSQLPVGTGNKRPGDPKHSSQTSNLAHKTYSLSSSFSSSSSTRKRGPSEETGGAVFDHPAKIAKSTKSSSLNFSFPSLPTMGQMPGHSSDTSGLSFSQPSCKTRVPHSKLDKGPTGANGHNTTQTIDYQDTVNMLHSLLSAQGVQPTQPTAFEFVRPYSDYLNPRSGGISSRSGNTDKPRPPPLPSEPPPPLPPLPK
Description: as §1

p53 = assay: p53-dependent transcription, β-galactosidase reporter in Arn8 cells; assay type: cell-based, human; set-up: key to p53 (effect): induction of p53 protein: ++: very strong; +: weak; −: no effect; conditions: for p53 (effect): induction of p53 protein: Arn8 cells stable transfected with a β-galactosidase reporter gene; for p53 (peak concentration in μM): Arn8 cells, concentration inducing maximum of β-galactosidase activity
Description: Protein p53, accumulated in nuclei upon treatment by the compounds, then leads to trans-activation of natural cell cycle inhibitor p21^WAF1, further blocking the cell cycle. […] This allows qualitative as well as quantitative measurement of CDK inhibitors-induced p53 transcriptional activity via β-galactosidase assay. Then, the effect will be verified in treated cells by immunoblotting of proteins expressed under the control of p53. β-galactosidase activity of human melanoma cell line Arn8 was determined as described. […] Alternatively, β-galactosidase activity was quantified by measuring fluorescence of methylumbelliferyl-β-D-galactopyranoside cleavage product. Cell lines established from the human breast carcinoma (MCF-7) and the human melanoma (Arn8) cell lines were cultured in Dubecco's Modified Eagle Medium (DMEM) supplemented with 10% foetal bovine serum.
Effects of prepared compounds on activation of p53 protein were analysed in human melanoma cell line Arn8. […] The total β-galactosidase activity in Arn8 cells was quantified using a fluorimetric assay.

Row | SMILES | IC50 (CDK2/cyclin E) | IC50 ([1]; Homo sapiens) | IC50 ([2]; Homo sapiens) | IC50 ([3]; Homo sapiens) | IC50 (CDK9/cyclin T) | further results
1 | Cn1cnc2c(NCc3cc(Cl)ccc3O)nc(NC3CCCCC3N)nc21 (stereo not shown) [Compound 1] | 0.29 µM | 65 µM | 43 µM | 78 µM | 0.18 µM | –
2 | Cn1cnc2c(NCc3cc(Cl)ccc3O)nc(NC3CCC(N)CC3)nc21 (stereo not shown) [Compound 2] | 0.27 µM | 64 µM | 46 µM | 82 µM | 0.15 µM | –
3 | CCC(CO)Nc1nc(NCc2cc(Cl)ccc2O)c2ncn(C)c2n1 (stereo not shown) [Compound 3] | 0.3 µM | 71 µM | 55 µM | 84 µM | 0.12 µM | –
4 | CC(C)C(CO)Nc1nc(NCc2cc(Cl)ccc2O)c2ncn(C)c2n1 (stereo not shown) [Compound 4] | 0.25 µM | – | – | – | 0.08 µM | –
5 | Cn1cnc2c(NCc3cc(F)ccc3O)nc(NC3CCCCC3N)nc21 (stereo not shown) [Compound 7] | 0.26 µM | 47 µM | 35 µM | 61 µM | 0.15 µM | –
6 | Cn1cnc2c(NCc3cc(F)ccc3O)nc(NC3CCC(N)CC3)nc21 (stereo not shown) [Compound 8] | 0.25 µM | 50 µM | 39 µM | 64 µM | 0.12 µM | –
7 | CCC(CO)Nc1nc(NCc2cc(F)ccc2O)c2ncn(C)c2n1 (stereo not shown) [Compound 9] | 0.3 µM | 53 µM | 42 µM | 67 µM | 0.17 µM | –
8 | COc1cccc(CNc2nc(NC3CCCCC3N)nc3c2ncn3C)c1O (stereo not shown) [Compound 31] | 0.26 µM | 45 µM | 36 µM | 60 µM | 0.19 µM | –
9 | COc1cccc(CNc2nc(NC3CCC(N)CC3)nc3c2ncn3C)c1O (stereo not shown) [Compound 32] | 0.22 µM | – | – | – | 0.18 µM | –
10 | CCC(CO)Nc1nc(NCc2cccc(OC)c2O)c2ncn(C)c2n1 (stereo not shown) [Compound 34] | 0.27 µM | – | – | – | 0.16 µM | –
11 | CCn1cnc2c(NCc3cc(Cl)ccc3O)nc(NC3CCCCC3N)nc21 (stereo not shown) [Compound 47] | – | – | – | – | – | IC50 [1]: 41 µM; IC50 [2]: 32 µM; IC50 [3]: 55 µM
12 | CCn1cnc2c(NCc3cc(Cl)ccc3O)nc(NC3CCC(N)CC3)nc21 (stereo not shown) [Compound 48] | 0.14 µM | – | – | – | 0.09 µM | –
13 | CCC(CO)Nc1nc(NCc2cc(Cl)ccc2O)c2ncn(CC)c2n1 (stereo not shown) [Compound 50] | 0.13 µM | 44 µM | 38 µM | 58 µM | 0.12 µM | –
14 | CCn1cnc2c(NCc3cc(F)ccc3O)nc(NC3CCC(N)CC3)nc21 (stereo not shown) [Compound 51] | 0.16 µM | 40 µM | 32 µM | 52 µM | 0.1 µM | –
15 | CCn1cnc2c(NCc3cc(C)ccc3O)nc(NC3CCCCC3N)nc21 (stereo not shown) [Compound 59] | 0.12 µM | – | – | – | 0.05 µM | –
16 | CCn1cnc2c(NCc3cccc(OC)c3O)nc(NC3CCC(N)CC3)nc21 (stereo not shown) [Compound 70] | 0.11 µM | – | – | – | 0.07 µM | –
17 | CCC(CO)Nc1nc(NCc2ccc(OC)cc2O)c2ncn(CC)c2n1 (stereo not shown) [Compound 73] | 0.17 µM | – | – | – | 0.09 µM | –
18 | CC(C)n1cnc2c(NCc3cc(Cl)ccc3O)nc(NC3CCCCC3N)nc21 (stereo not shown) [Compound 76] | 0.05 µM | 4.1 µM | 2.8 µM | 9.9 µM | 0.03 µM | –
19 | CC(C)n1cnc2c(NCc3cc(Cl)ccc3O)nc(NC3CCC(N)CC3)nc21 (stereo not shown) [Compound 77] | 0.04 µM | – | – | – | 0.01 µM | –
20 | CC(C)n1cnc2c(NCc3cc(Cl)ccc3O)nc(NC(C)C(C)(C)O)nc21 (stereo not shown) [Compound 82] | 0.04 µM | – | – | – | 0.01 µM | –

Row | SMILES | IC50 (CDK2/cyclin E) | IC50 ([1]; Homo sapiens) | IC50 ([2]; Homo sapiens) | IC50 ([3]; Homo sapiens) | IC50 (CDK9/cyclin T) | further results
21 | CC(C)n1cnc2c(NCc3cc(Cl)ccc3O)nc(NCCC(C)(C)O)nc21 [Compound 83] | 0.02 µM | – | – | – | 0.007 µM | –
22 | CCC(CO)Nc1nc(NCc2cccc(C)c2O)c2ncn(C(C)C)c2n1 (stereo not shown) [Compound 101] | – | – | – | – | 0.04 µM | –
23 | CCC(CO)Nc1nc(NCc2cccc(O)c2O)c2ncn(C(C)C)c2n1 (stereo not shown) [Compound 113] | – | 8.4 µM | 4.5 µM | 7.8 µM | 0.04 µM | –
24 | CC(C)C(CO)Nc1nc(NCc2cccc(O)c2O)c2ncn(C(C)C)c2n1 (stereo not shown) [Compound 114] | – | – | – | – | – | p53 (effect): induction of p53 protein (p53): ++; p53 (peak concentration in μM) (p53): 12.0 µM
25 | CC(C)n1cnc2c(NCc3cc(O)ccc3O)nc(NC3CCCCC3N)nc21 (stereo not shown) [Compound 121] | 0.08 µM | – | – | – | 0.07 µM | –
26 | COc1cccc(CNc2nc(NCC(C)O)nc3c2ncn3C(C)C)c1O (stereo not shown) [Compound 127] | 0.08 µM | – | – | – | 0.06 µM | –
27 | COc1cccc(CNc2nc(NC3CCC(O)CC3)nc3c2ncn3C(C)C)c1O (stereo not shown) [Compound 136] | 0.05 µM | – | – | – | 0.03 µM | –
28 | CCC(CO)Nc1nc(NCc2ccc(OC)cc2O)c2ncn(C(C)C)c2n1 (stereo not shown) [Compound 139] | 0.09 µM | – | – | – | 0.04 µM | –
29 | COc1ccc(O)c(CNc2nc(NC3CCCCC3N)nc3c2ncn3C(C)C)c1 (stereo not shown) [Compound 143] | – | – | – | – | – | IC50 [2]: 5 µM; IC50 [3]: 13.1 µM
30 | NC1CCCCC1Nc1nc(NCc2cc(Cl)ccc2O)c2ncn(Cc3ccccc3)c2n1 (stereo not shown) [Compound 179] | – | – | – | – | – | IC50 [1]: 10.2 µM; IC50 [2]: 8.7 µM; IC50 [3]: 19.5 µM
31 | NC1CCCCC1Nc1nc(NCc2cc(F)ccc2O)c2ncn(Cc3ccccc3)c2n1 (stereo not shown) [Compound 186] | – | – | – | – | – | IC50 [1]: 9.3 µM; IC50 [2]: 6.9 µM; IC50 [3]: 15.4 µM
32 | CC[C@H](CO)Nc1nc(NCc2ccccc2O)c2ncn(C(C)C)c2n1 [OCII, olomoucine II, reference compound] | – | – | – | – | – | p53 (effect): induction of p53 protein (p53): ++; p53 (peak concentration in μM) (p53): 12.0 µM
33 | CCC(CC)n1cnc2c(NCc3cc(Cl)ccc3O)nc(NC3CCCCC3N)nc21 (stereo not shown) [compound 223] | 0.08 µM | – | – | – | 0.05 µM | IC50 [1]: 6.8 µM; IC50 [2]: 4.8 µM; IC50 [3]: 17.6 µM
34 | CCC(CO)Nc1nc(NCc2cc(Cl)ccc2O)c2ncn(C(CC)CC)c2n1 (stereo not shown) [compound 224] | 0.09 µM | 7.2 µM | 5.5 µM | 15.6 µM | 0.06 µM | –
35 | CCC(CC)n1cnc2c(NCc3cc(F)ccc3O)nc(NC3CCCCC3N)nc21 (stereo not shown) [compound 226] | – | – | – | – | – | IC50 [1]: 4.3 µM; IC50 [2]: 4.1 µM; IC50 [3]: 12.4 µM
36 | CCC(CC)n1cnc2c(NCc3cc(F)ccc3O)nc(NC3CCC(N)CC3)nc21 (stereo not shown) [compound 227] | 0.06 µM | – | – | – | 0.01 µM | –
37 | CCC(CO)Nc1nc(NCc2cc(F)ccc2O)c2ncn(C(CC)CC)c2n1 (stereo not shown) [compound 228] | 0.07 µM | 6.8 µM | 4.6 µM | 13.2 µM | 0.04 µM | –
38 | CCC(CO)Nc1nc(NCc2cccc(OC)c2O)c2ncn(C(CC)CC)c2n1 (stereo not shown) [compound 237] | 0.04 µM | – | – | – | 0.02 µM | –
39 | CCC(CC)n1cnc2c(NCc3cccc(OC)c3O)nc(NC3CCCCC3N)nc21 (stereo not shown) [compound 238] | 0.06 µM | – | – | – | 0.04 µM | –
40 | CCC(CO)Nc1nc(NCc2cc(OC)ccc2O)c2ncn(C(CC)CC)c2n1 (stereo not shown) [compound 240] | 0.1 µM | – | – | – | 0.07 µM | –
